In patent publication US20080299210A1, “STABLE NANOSIZED AMORPHOUS DRUG” (priority 2006, published 2008):

Columns and labels:
[1] = Differential scanning calorimetry (DSC) of drug samples; assay type: physicochemical; details: for Tg of drug / ΔHc: DSC scanning rate 10° C./min
Method: The amorphous state of the amorphous drug core is determined by subjecting a population of nanoparticles that comprise one or more nanoparticles that comprise the recited amorphous drug core to differential scanning calorimetry (DSC). In an embodiment, a DSC method according to the invention used a Perkin-Elmer DSC-7 or a Diamond DSC calorimeter applied for the measurement of specific transition temperatures of tested samples. […] The instrument was calibrated using indium, tin and zinc certified reference materials (CRMs) The amorphous state of the amorphous drug core, as measured by DSC is expressed as a weight fraction of the weight of amorphous material in the amorphous drug core to the total weight of the amorphous drug core, expressed as an average value across the population of nanoparticles being measured. For instance, if a population of nanoparticles was measured using DSC, and the amorphous state was determined to be a particular value for the population, that value would be considered the average amorphous state for each nanoparticle within the population. An inventive amorphous drug core may contain a small amount of crystalline drug. […] “Glass forming ability” or “GFA” means the ratio of Tg to Tm. It can be calculated as: […] is a measure of the tendency of an amorphous drug to remain in an amorphous state. […] “Glass transition temperature” or “Tg” means that temperature at which a material transitions to a glassy state from a liquid state, as measured at standard atmospheric pressure. […] C. […] C.

Water solubility of drug = assay type: physicochemical; details: 25 °C
Method: “Water solubility” means a measure of the maximum possible concentration of a drug dissolved in water. The water temperature may be specified; in an embodiment water solubility is determined at 25 Deg. C. Units of measurement of water solubility are typically mass/volume, such as mg/ml. The water solubility of drug useful in the practice of the present invention is less than or equal to about 1 mg/ml at 25 Deg. C.; preferably less than or equal to about 0.1 mg/ml at 25 Deg. C.; more preferably less than or equal to about 0.01 mg/ml at 25 Deg. C., still more preferably less than or equal to about 1 microgram/ml at 25 Deg. C.

Structure (SMILES) | Tg of drug [1] [°C] | ΔHc [1] [J/g] | glass forming ability (GFA), Tg/Tm [1] | further results
CC(C)(C)c1ccc(C(O)CCCN2CCC(C(O)(c3ccccc3)c3ccccc3)CC2)cc1 (stereo not shown) [Amorphous terfenadine, terfenadine] | 53.77 | 10.35 |  | crystallinity (crystalline portion) by DSC ([1]; relative to original crystallinity): less than 20%
O=C(NN1CCCCC1)c1nn(-c2ccc(Cl)cc2Cl)c2c1CCC/C2=C\c1ccc(F)cc1 [Crystalline COMPOUND 1] |  | 77.64 |  | 
O=C(NN1CCCCC1)c1nn(-c2ccc(Cl)cc2Cl)c2c1CCC/C2=C\c1ccc(F)cc1 [COMPOUND 1] |  |  | 0.81 | solubility (Water solubility of drug): ≤ 0.2 ng/mL
O=C(NN1CCCCC1)c1nn(-c2ccc(Cl)cc2Cl)c2c1CCC/C2=C\c1ccc(F)cc1 [Amorphous COMPOUND 1] | 87.07 | 0 |  | 

Now from value to compound, other results behind:

Tg of drug [1] [°C] | ΔHc [1] [J/g] | glass forming ability (GFA), Tg/Tm [1] | Structure (SMILES) | further results
 | 108.63 |  | CC(C)(C)c1ccc(C(O)CCCN2CCC(C(O)(c3ccccc3)c3ccccc3)CC2)cc1 (stereo not shown) [Crystalline terfenadine, terfenadine] | 
 |  | 0.77 | CC(C)(C)c1ccc(C(O)CCCN2CCC(C(O)(c3ccccc3)c3ccccc3)CC2)cc1 (stereo not shown) [terfenadine, Terfenadine] | 
